Measured values taken from patent US8580746B2, “Amide linkage cyclic natriuretic peptide constructs” (Palatin Technologies, Inc., priority 2006, dated 2013).
Numbered stars: 1 amine (or outer) side, 2 acyl side, 3 side chain; on linkers, the order of the positions; unused ones are H or OH. Bridge positions count the residues as written; N and C are the ends. Square brackets hold non-standard residues; d marks the D form. Peptide text beside a SMILES is read from it. * marks the point of attachment. X1 = N=C(N)NCCC[C@H]1C(=O)N[C@@H](C(N)=O)CN1*; Glutaryl = O=C(CCCC(=O)[*:2])[*:1]; Suc = O=C(CCC(=O)[*:2])[*:1]; dNle = CCCC[C@@H](N)C(=O)O; Heptanoyl = CCCCCCC(=O)*; Nle = CCCC[C@H](N)C(=O)O; Orn = NCCC[C@H](N)C(=O)O; Dab = NCC[C@H](N)C(=O)O; Dap = NC[C@H](N)C(=O)O

What was measured:
[1] = molecular target: T1, human natriuratic peptide receptor A (NPRA) (Homo sapiens, UniProt P16066); test: Competitive inhibition binding assay, [125I]-ANP, membrane homogenates from HEK-hNPRA cells; conditions: for Percent Inhibition: inhibition of [125I]-ANP binding to HEK-hNPRA membranes, construct concentration not stated; for Ki: [125I]-ANP competition, HEK-hNPRA membranes
T1 sequence (P16066 33-1061): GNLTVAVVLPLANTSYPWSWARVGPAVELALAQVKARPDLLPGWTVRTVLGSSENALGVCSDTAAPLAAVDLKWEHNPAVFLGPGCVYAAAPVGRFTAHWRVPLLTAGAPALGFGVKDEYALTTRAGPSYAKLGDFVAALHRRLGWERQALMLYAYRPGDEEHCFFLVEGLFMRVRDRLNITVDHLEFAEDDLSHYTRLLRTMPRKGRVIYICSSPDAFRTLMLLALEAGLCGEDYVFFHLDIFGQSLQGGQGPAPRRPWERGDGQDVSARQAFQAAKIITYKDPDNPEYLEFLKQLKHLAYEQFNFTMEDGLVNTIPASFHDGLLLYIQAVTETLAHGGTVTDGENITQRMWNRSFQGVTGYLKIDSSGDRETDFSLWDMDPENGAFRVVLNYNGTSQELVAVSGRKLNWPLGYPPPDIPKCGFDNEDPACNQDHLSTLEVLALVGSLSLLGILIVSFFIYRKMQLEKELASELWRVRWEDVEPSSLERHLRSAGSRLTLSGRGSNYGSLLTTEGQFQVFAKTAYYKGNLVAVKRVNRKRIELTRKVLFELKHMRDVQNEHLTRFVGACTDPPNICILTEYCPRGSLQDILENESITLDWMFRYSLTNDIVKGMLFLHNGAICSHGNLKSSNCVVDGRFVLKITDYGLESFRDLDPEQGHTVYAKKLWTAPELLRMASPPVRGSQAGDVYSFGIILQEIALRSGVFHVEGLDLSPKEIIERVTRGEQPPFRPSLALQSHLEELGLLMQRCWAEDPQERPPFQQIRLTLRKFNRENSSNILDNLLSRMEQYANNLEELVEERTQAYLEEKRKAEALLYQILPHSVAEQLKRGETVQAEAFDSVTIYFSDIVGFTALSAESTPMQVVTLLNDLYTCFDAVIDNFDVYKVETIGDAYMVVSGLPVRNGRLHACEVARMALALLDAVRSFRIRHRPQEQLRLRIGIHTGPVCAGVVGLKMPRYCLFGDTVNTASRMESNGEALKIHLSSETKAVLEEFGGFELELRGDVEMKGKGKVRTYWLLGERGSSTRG
Excerpt: (§1) A cDNA clone that encodes for human natriuratic peptide receptor A (NPRA) was purchased from Bio S&T Inc. (Montreal, Quebec). The cDNA clone was inserted into the mammalian expression vector pcDNA3.1 (Invitrogen) and transfected into HEK-293 cells. Stable clones were selected by culture of cells in the presence of G418 sulfate. Expression of NPRA was examined by binding of [^125I]-atrial natriuretic peptide ([^125I]-ANP) to membrane homogenates prepared from clonal cell lines. HEK-hNPRA cells were maintained in culture at 37° C. in 5% CO2 in Dulbecco's Modified Eagle's Medium (DMEM) supplemented with 10% FBS, G418 sulfate (300 μg/mL) sodium glutamate (0.29 mg/mL), penicillin (100 units/mL) and streptomycin (100 ug/mL).
A competitive inhibition binding assay was performed using crude membrane homogenates prepared from HEK-hNPRA cells. To prepare membrane homogenates, cells were rinsed with phosphate-buffered saline and incubated for 15 minutes at 4° C. in hypotonic lysis buffer (10 mM Tris, pH 7.4+5 mM EDTA). Cells were transferred from plates to polypropylene tubes and homogenized. Homogenates were centrifuged at 25,000×g for 20 minutes. Pellets were resuspended in buffer consisting of 50 mM Tris (pH 7.4) and 1 mM EDTA, homogenized and centrifuged at 25,000×g for 20 minutes. Pellets were resuspended in buffer consisting of 100 mM Tris (pH 7.4) and 10 mM MgCl2 and stored at −80° C. until needed. On the day of an assay, homogenates were thawed and homogenized. Binding of [^125I]-ANP was carried out in buffer containing 25 mM Hepes (pH 7.4), 100 mM NaCl, 2 mM CaCl2, 5 mM MgCl2, 0.1% BSA and 1 mM 1,10-phenanthroline. Homogenates (1-10 μg protein/well) were incubated with [^125I]-ANP (25-30 pM) and increasing concentrations of competing ligands in Millipore filter plates for 120 minutes at 4° C. Assays were stopped by addition of cold wash buffer (phosphate-buffered saline) followed by filtration using a vacuum manifold. Bound radioactivity was determined using a gamma counter. Non-specific binding was defined by binding of [I^125]-hANP to non-transfected HEK293 membranes. Data were analyzed using GraphPad Prism® curve-fitting software.

hNPR-A = molecular target: T2, hNPR-A (Homo sapiens, UniProt P16066); test: Accumulation of intracellular cGMP in HEK-293 cells that express recombinant hNPR-A; format: cell-based; conditions: HEK-hNPRA cells
T2 sequence (P16066 33-1061): T1 sequence (P16066 33-1061)
Excerpt: as §1
Functional evaluation of constructs was performed by measuring the accumulation of intracellular cGMP in HEK-293 cells that express recombinant hNPR-A. HEK-NPRA cells were harvested by washing and centrifugation in Cell Dissociation Buffer (Gibco, Life Technologies). Pelleted cells were resuspended in Hank's Balanced Salt Solution (HBSS) containing 10 mM Hepes (pH 7.4), 5 mM MgCl2, […], 1 mM 1,10-phenanthroline and BSA (0.5 mg/mL). Following centrifugation, cells were resuspended in the above buffer supplemented with 0.5 mM 3-isobutyl-1-methylxanthine (IBMX). Cells (˜2×10^5/well) were added to each well of a 96-well plate and incubated for 15 minutes at 37° C. Following the pre-incubation period, cells were incubated for an additional 15 minutes in the presence of increasing concentrations of constructs. The reaction was terminated by lysis of the cells with temperature shock. The reaction plate was incubated in a dry ice/ethanol bath for 15 minutes followed by incubation at 90° C. for 10 minutes. Accumulation of cGMP was measured using the cGMP Flashplate RIA (Perkin-Elmer). Data analysis and EC50 values were determined by using nonlinear regression analysis with GraphPad Prism® software.

[2] = Resistance to degradation by human neutral endopeptidase; format: in vitro ADME; conditions: isolated enzyme neprilysin; 50 μM concentration of human neutral endopeptidase; two hours; read-out: percent of construct remained after incubation for two hours
Procedure: (§2) In other tests, resistance to degradation by a 50 μM concentration of human neutral endopeptidase was determined for selected constructs.

[3] = in vivo
Procedure: as §2

neutral endopeptidase = test: Resistance to degradation by human neutral endopeptidase; format: in vitro ADME; conditions: human neutral endopeptidase (isolated enzyme); 50 μM concentration of human neutral endopeptidase; two hours; read-out: percent of construct remained after incubation for two hours
Procedure: as §2

| SMILES | Percent Inhibition [1] [%] | EC50 (hNPR-A) [nM] | Ki [1] [nM] | remaining at 2 h [2] [%] | half-life [3] [min] | remaining at 2 h (neutral endopeptidase) [%] |
| --- | --- | --- | --- | --- | --- | --- |
| CCCCCCC(=O)NC[C@@H]1NC(=O)CC[C@@H](C(=O)N[C@@H](Cc2ccc(O)cc2)C(=O)N2C[C@H](C(N)=O)NC(=O)[C@@H]2CCCNC(=N)N)NC(=O)[C@H](CO)NC(=O)[C@H]([C@@H](C)CC)NC(=O)[C@H](CCCNC(=N)N)NC(=O)[C@H](CC(=O)O)NC(=O)[C@@H](CCCC)NC(=O)[C@H](CCCNC(=N)N)NC(=O)CNC(=O)[C@@H](C)NC(=O)[C@H](Cc2ccccc2)NC(=O)[C@H](Cc2c[nH]cn2)NC1=O [3-76] ([Dap](Heptanoyl)HF[dA]GR[dNle]DRISEY-X1; lactam N-12) | 93 | 10 | – | – | – | 84 |
| CCCCCCC(=O)N[C@H]1CNC(=O)CCC(=O)NC[C@@H](C(=O)N[C@@H](Cc2ccc(O)cc2)C(=O)N2C[C@H](C(N)=O)NC(=O)[C@@H]2CCCNC(=N)N)NC(=O)[C@H](CO)NC(=O)[C@H]([C@@H](C)CC)NC(=O)[C@H](CCCNC(=N)N)NC(=O)[C@H](CC(=O)O)NC(=O)[C@H](CCCC)NC(=O)[C@H](CCCNC(=N)N)NC(=O)CNC(=O)[C@@H](C)NC(=O)[C@H](Cc2ccccc2)NC(=O)[C@@H](Cc2c[nH]cn2)NC1=O [1-37] (Heptanoyl-[Dap][dH]F[dA]GR[Nle]DRIS[Dap]Y-X1; linker 1-12 via Suc) | 100 | 0.7 | – | – | – | – |
| CCCCCCC(=O)NCC[C@@H]1NC(=O)CC[C@@H](C(=O)N[C@@H](Cc2ccc(O)cc2)C(=O)N2C[C@H](C(N)=O)NC(=O)[C@@H]2CCCNC(=N)N)NC(=O)[C@H](CO)NC(=O)[C@H]([C@@H](C)CC)NC(=O)[C@H](CCCNC(=N)N)NC(=O)[C@H](CC(=O)O)NC(=O)[C@@H](CCCC)NC(=O)[C@H](CCCNC(=N)N)NC(=O)CNC(=O)[C@@H](C)NC(=O)[C@H](Cc2ccccc2)NC(=O)[C@H](Cc2c[nH]cn2)NC1=O [3-75] ([Dab](Heptanoyl)HF[dA]GR[dNle]DRISEY-X1; lactam N-12) | 98 | 5 | – | 97 | – | – |
| CCCCCCC(=O)N[C@H]1CNC(=O)CCCC(=O)NCCC[C@@H](C(=O)N[C@@H](Cc2ccc(O)cc2)C(=O)N2C[C@H](C(N)=O)NC(=O)[C@@H]2CCCNC(=N)N)NC(=O)[C@H](CO)NC(=O)[C@H]([C@@H](C)CC)NC(=O)[C@H](CCCNC(=N)N)NC(=O)[C@H](CC(=O)O)NC(=O)[C@H](CCCC)NC(=O)[C@H](CCCNC(=N)N)NC(=O)CNC(=O)[C@@H](C)NC(=O)[C@H](Cc2ccccc2)NC(=O)[C@@H](Cc2c[nH]cn2)NC1=O [1-31] (Heptanoyl-[Dap][dH]F[dA]GR[Nle]DRIS[Orn]Y-X1; linker 1-12 via Glutaryl) | 68 | 10 | – | – | – | – |

Continued, values first:

| Percent Inhibition [1] [%] | EC50 (hNPR-A) [nM] | Ki [1] [nM] | remaining at 2 h [2] [%] | half-life [3] [min] | remaining at 2 h (neutral endopeptidase) [%] | SMILES |
| --- | --- | --- | --- | --- | --- | --- |
| 69 | 0.2 | – | – | – | – | CCCC[C@@H]1NC(=O)[C@H](CCCNC(=N)N)NC(=O)CNC(=O)CNC(=O)[C@H](Cc2ccccc2)NC(=O)[C@H](Cc2c[nH]cn2)NC(=O)[C@@H](N)CC(=O)NCC[C@@H](C(=O)N[C@@H](Cc2ccc(O)cc2)C(=O)N2C[C@H](C(N)=O)NC(=O)[C@@H]2CCCNC(=N)N)NC(=O)[C@H](CO)NC(=O)[C@H]([C@@H](C)CC)NC(=O)[C@H](CCCNC(=N)N)NC(=O)[C@H](CC(=O)O)NC1=O [4-143] (H-DHFGGR[Nle]DRIS[Dab]Y-X1; lactam 1-12) |
| – | 11 | 40 | 95 | – | – | CCCC[C@H]1NC(=O)[C@H](CCCNC(=N)N)NC(=O)CNC(=O)[C@@H](C)NC(=O)[C@H](Cc2ccccc2)NC(=O)[C@H](Cc2c[nH]cn2)NC(=O)[C@@H](NC(=O)[C@@H](C)N)CCC(=O)NCC[C@@H](C(=O)N[C@@H](Cc2ccc(O)cc2)C(=O)N2C[C@H](C(N)=O)NC(=O)[C@@H]2CCCNC(=N)N)NC(=O)[C@H](CO)NC(=O)[C@H]([C@@H](C)CC)NC(=O)[C@H](CCCNC(=N)N)NC(=O)[C@H](CC(=O)O)NC1=O [4-90] (H-[dA]EHF[dA]GR[dNle]DRIS[Dab]Y-X1; lactam 2-13) |
| – | 0.25 | 0.6 | – | 6.6 | – | CCCC[C@H]1NC(=O)[C@H](CCCNC(=N)N)NC(=O)CNC(=O)CNC(=O)[C@H](Cc2ccccc2)NC(=O)[C@H](Cc2c[nH]cn2)NC(=O)[C@@H](NC(=O)[C@@H](C)N)CC(=O)NCC[C@@H](C(=O)N[C@@H](Cc2ccc(O)cc2)C(=O)N2C[C@H](C(N)=O)NC(=O)[C@@H]2CCCNC(=N)N)NC(=O)[C@H](CO)NC(=O)[C@H]([C@@H](C)CC)NC(=O)[C@H](CCCNC(=N)N)NC(=O)[C@H](CC(=O)O)NC1=O [4-98] (H-[dA]DHFGGR[dNle]DRIS[Dab]Y-X1; lactam 2-13) |
| 78 | 0.25 | – | – | – | – | CCCCCCC(=O)N[C@H]1CC(=O)NCC[C@@H](C(=O)N[C@@H](Cc2ccc(O)cc2)C(=O)N2C[C@H](C(N)=O)NC(=O)[C@@H]2CCCNC(=N)N)NC(=O)[C@H](CO)NC(=O)[C@H]([C@@H](C)CC)NC(=O)[C@H](CCCNC(=N)N)NC(=O)[C@H](CC(=O)O)NC(=O)[C@H](CCCC)NC(=O)[C@H](CCCNC(=N)N)NC(=O)CNC(=O)CNC(=O)[C@H](Cc2ccccc2)NC(=O)[C@H](Cc2c[nH]cn2)NC1=O [4-137] (Heptanoyl-DHFGGR[Nle]DRIS[Dab]Y-X1; lactam 1-12) |
| 100 | 4 | – | 89 | – | – | CCCCCCC(=O)N[C@H]1CC(=O)NCC[C@@H](C(=O)N[C@@H](Cc2ccc(O)cc2)C(=O)N2C[C@H](C(N)=O)NC(=O)[C@@H]2CCCNC(=N)N)NC(=O)[C@H](CO)NC(=O)[C@H]([C@@H](C)CC)NC(=O)[C@H](CCCNC(=N)N)NC(=O)[C@H](CC(=O)O)NC(=O)[C@@H](CCCC)NC(=O)[C@H](CCCNC(=N)N)NC(=O)CNC(=O)[C@@H](C)NC(=O)[C@H](Cc2ccccc2)NC(=O)[C@H](Cc2c[nH]cn2)NC1=O [4-138] (Heptanoyl-DHF[dA]GR[dNle]DRIS[Dab]Y-X1; lactam 1-12) |
